# From US5073571A, “Method of inhibiting virus” (priority 1989, dated 1991)
# Test system: MoMLV
# Assay: MoMLV replication: LZ1 virus titer by histochemical staining of NIH 3T3 cells for β-galactosidase
# Type: cell-based, Maloney murine leukemia virus
# Details: up to 100 μM, 2 day treatment of LZ1 cells
# From the text: Panel A -Schematic representation of the MoMLV assay system. […] This cell produces infectious, replication defective virus (designated (LZ1) which carries the LacZ gene. When NIH3T3 cells are exposed to supernatant taken from the LZ1 virus producing cells, they are initially infected and their progeny are detectable by histochemical staining for β-galactosidase. Thus, the titer of the virus produced by the LZ1 cells after treatment with the various agents, can be readily determined by counting the number of blue NIH3T3 cells. Replication competent MoMLV is not detected using this assay system since the lacZ gene product is not present. Panel B - The effect of 6-oxamyristic acid and 13-oxamyristic acid on LZ1 virus production. The results represent the mean (+1 standard deviation) of three independent tests each done in duplicate. Panel C - Number of viable LZ1 producing cells at the end of a 2 day treatment with analog as measured by trypan blue exclusion. The results of duplicate assays were averaged. Panel D - The effects of analog treatment on incorporation of [^3 H]leucine. Cells in duplicate wells were pulse labeled for 4 h following three days of incubation with analog or ethanol (0.1%). Duplicate assays were performed. The results were averaged and expressed as a percentage of the results obtained from untreated cells.
# Assay of the Effects of Analogs on the Replication of Maloney Murine Leukemia Virus. The LZ1 titer assay was developed for rapid histochemical quantitation of infectious virus production. In brief, the LZ1 virus-producing cell line was derived by Sanes et al., EMBO J. 5, 3133-3142 (1986), from the .PSI.-2 cell line. .PSI.-2-cells are NIH 3T3 cells that contain a stably integrated packaging mutant (pMOV-.PSI.-) of MoMLV. This mutant has a deletion of 350 nucleotides between the 5' donor splice site for env and the initiator methionine codon for Pr65^gag [Mann et al., Cell 33, 153-159 (1983)]. The LZ1 cell line is a subclone of .PSI.-2 cells that were co-transfectd with pM-MuLV-SV-LacZ [Sanes et al., supra.]and pSVTK neoB and then selected for G418 (Geneticin®) antibiotic resistance and production of defective MoMLV containing the E. coli β-galactosidase gene [Sanes et al., supra.]. The recombinant virus produced by LZ1 cells is capable of primary infection of NIH 3T3 cells but is replication defective [Sanes et al., surpa.]. Infected NIH 3T3 containing the lac-Z gene can be identified by histochemical staining for β-galactosidase activity.
# To assess the effects of analog treatment on MoMLV replication, 1 × 10^5 LZ1 producing cells were added to each well of a 24-well tissue culture plate in 1 mL of Dulbecco's Modified Eagle's medium (DME) containing calf serum (final concentration =10%), penicillin (100 IU/mL), streptomycin (100 μg/mL) with or without analog (10-100 μM). After 24 h, the media was removed and fresh serum-containing media ±analog was added. The next day (48 hours after plating), the virus containing supernatant was removed and passed through a 0.2 μm filter. Various size aliquots (25-100 μL of the 1 mL filtrate) were added to 1 × 10^4 NIH 3T3 cells contained in 1 mL of DME/10% calf serum/penicillin/streptomycin. These indicator cells had been plated 24 h earlier in 24 well tissue culture plates. Polybrene (Sigma) was added at the same time as the filtrate so that its final concentration was 10 μg/mL. […]
smiles,measurement,value
"COCCCCCCCCCCCC(=O)O [13-oxamyristate, 12-(Methoxy)dodecanoic acid]",effect on MoMLV replication,no effect on virus replication
